Measured values published in patent US5733569A, “Galenic compositions comprising calcitonin and their use” (Novartis Corporation, priority 1982, dated 1998).

Experiments:
Pen. steckii = test: preservative activity against test fungus in calcitonin nasal composition; conditions: chlorbutanol at 0.6% in calcitonin nasal pharmaceutical compositions
Description: Very many well-known preserving agents present themselves for possible use in calcitonin pharmaceutical compositions. However experiment has shown that not all are suitable for practical use in relation to a calcitonin nasal spray.

[1] = tested on: ciliary beating frequency of rat trachea; test: ciliary beating frequency, microphoto-oscillographic method of L. Chevance et al; conditions: at 0.6%, within 20 minutes
Protocol: 70, […] (1970). These are just some of the disadvantageous effects that can be encountered.
Moreover the compositions are well tolerated as indicated in standard tests, e.g. in that less than 50% inhibition of ciliary beating frequency is observed up to 20 minutes after administration, according to the microphoto-oscillographic method of L. Chevance et al, Acta Otolaryng. 70, 26-28 (1970).

[2] = relative bio-availability study nasal administration/intra-muscular injection of salmon calcitonin in healthy volunteers; type: in vivo; conditions: for time serum levels remain above the detectability limit: detectability limit 26 pg/ml
Protocol: The study is conducted with 12 healthy volunteers, 6 male and 6 female, with a body weight of from 50 to 85 kg. Each subject receives 4 administrations of salmon calcitonin, one intra-muscularly and 3 nasally. Administration is effected at the following dosages:
B. Intra-muscular: 50 MRC units.
Nasal administration is effected using composition in accordance with example 1 and a spray-applicator delivering 55 MRC units per individual spray dosage. For the purposes of administration the subject is laid on the back with the head tilted backwards for 5 minutes. The nostrils are cleaned by blowing of the nose immediately prior to administration.
Intra-muscular administration is effected by injection of a single 1 ml dose of a composition similar to that of example 1, but omitting benzalkonium chloride and containing 50 MRC units into the glutaeus medius muscle.
Each subject receives the 4 administrations in randomized sequence, and at least 3 days are allowed between consecutive administrations. Each administration is effected in the morning after a light breakfast from which milk, butter and cheese is excluded. 100 ml water or orange juice is taken hourly following treatment to maintain urinary output. Further food is allowed not earlier than 4 hours after treatment.
Blood samples are taken immediately prior to administration (control), and at intervals of 5, 15, 30, 60, 90, 120, 180, 240, 360 and 480 minutes following administration. For the control a 20 ml sample is taken. All subsequent samples are 2 ml samples.
The concentration of salmon calcitonin in each serum sample is measured by radio-immuno-assay. Blood-pressure is controlled during the course of the trial and urine-samples tested for possible adverse reaction. Occurrence of side-effects, e.g. symptoms of nausea, is noted.
The AUC ("area under curve") for salmon calcitonin plasma concentration is calculated statistically, once employing all value, including those below the 26 pg/ml detectability limit, once with values below the detectability limit read as zero. Maximal plasma concentration and time at which this is reached are also determined. Relative bio-availability for nasal administration is determined from the relative dosage-standardized AUC (i.e. based on 50 MRC units) following nasal and intra-muscular administration.

AUC values compared with 50 MRC units i.m. ([2]; 110 MRC units intra-nasally)	AUC values compared with 50 MRC units i.m. ([2]; 220 MRC units intra-nasally)	F rel ([2]; both sexes, plasma, inhaled or intranasal, nasal vs intra-muscular, human, read-out: bio-availability (blood-plasma concentration) following nasal administration relative to levels achieved on intra-muscular injection)	time serum levels remain above the detectability limit ([2]; i.m. application of 50 MRC units)	time serum levels remain above the detectability limit ([2]; nasal application of 110 MRC units)	SMILES	time required to reduce the cell count to less than 0.1% (Pen. steckii)	inhibition of the ciliary beating frequency [1]	adverse side-effects following nasal administrations ([2]; nasal, up to the highest dosage of 220 MRC units)
–	–	–	–	–	CC(C)(O)C(Cl)(Cl)Cl [chlorbutanol]	more than 3 days	more than 50%	–
comparable	comparable	~50%	6 h	8 h	CC(C)C[C@H](NC(=O)[C@H](CCCCN)NC(=O)CNC(=O)[C@H](CC(C)C)NC(=O)[C@@H](NC(=O)[C@@H]1CSSC[C@H](N)C(=O)N[C@@H](CO)C(=O)N[C@@H](CC(N)=O)C(=O)N[C@@H](CC(C)C)C(=O)N[C@@H](CO)C(=O)N[C@@H]([C@@H](C)O)C(=O)N1)C(C)C)C(=O)N[C@@H](CO)C(=O)N[C@@H](CCC(N)=O)C(=O)N[C@@H](CCC(=O)O)C(=O)N[C@@H](CC(C)C)C(=O)N[C@@H](Cc1c[nH]cn1)C(=O)N[C@@H](CCCCN)C(=O)N[C@@H](CC(C)C)C(=O)N[C@@H](CCC(N)=O)C(=O)N[C@H](C(=O)N[C@@H](Cc1ccc(O)cc1)C(=O)N1CCC[C@H]1C(=O)N[C@@H](CCCNC(=N)N)C(=O)N[C@H](C(=O)N[C@@H](CC(N)=O)C(=O)N[C@H](C(=O)NCC(=O)N[C@@H](CO)C(=O)NCC(=O)N[C@H](C(=O)N1CCC[C@H]1C(N)=O)[C@@H](C)O)[C@@H](C)O)[C@@H](C)O)[C@@H](C)O [salmon calcitonin]	–	–	No adverse side-effects
